The values that follow come from patent US20110172274A1, “FLUORO-SUBSTITUTED 3,4-DIARYL-4,5-DIHYDRO-1H-PYRAZOLE-1-CARBOXAMIDINE DERIVATIVES HAVING CB1-ANTAGONISTIC ACTIVITY” (priority 2008, published 2011).

By Ki is commonly meant a dissociation constant, usually derived from enzyme kinetics or from competition with a known ligand. For orientation: melting point means the temperature of the solid-liquid transition.

The structures appear in SMILES notation.

For series [1], the target named is T1, human cannabinoid CB1 receptors (Homo sapiens, UniProt P21554).
T1 construct: expressed in transfected cells; host or cells: Chinese hamster ovary (CHO) cells, membrane preparations
T1 sequence (P21554 whole entry): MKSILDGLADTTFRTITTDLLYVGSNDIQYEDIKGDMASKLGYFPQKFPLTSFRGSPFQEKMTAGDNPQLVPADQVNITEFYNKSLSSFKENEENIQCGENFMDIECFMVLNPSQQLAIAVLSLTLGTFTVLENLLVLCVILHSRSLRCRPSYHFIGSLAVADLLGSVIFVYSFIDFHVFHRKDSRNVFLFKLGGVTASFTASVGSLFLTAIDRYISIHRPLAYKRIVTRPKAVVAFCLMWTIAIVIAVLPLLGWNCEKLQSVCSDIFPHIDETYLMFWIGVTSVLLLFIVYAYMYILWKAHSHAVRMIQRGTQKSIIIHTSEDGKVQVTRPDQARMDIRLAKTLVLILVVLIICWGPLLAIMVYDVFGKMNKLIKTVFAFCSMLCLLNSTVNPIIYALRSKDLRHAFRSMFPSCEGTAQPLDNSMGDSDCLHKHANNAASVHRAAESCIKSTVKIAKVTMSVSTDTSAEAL
The experiment in a line: In vitro affinity for cannabinoid-CB1 receptors, [3H]CP-55,940 radioligand binding, CHO cell membranes. To be noted: for Ki: CHO membranes, [3H]CP-55,940, means of at least two independent experiments, read-out: receptor binding h-CB1 receptor Ki; for factor of higher affinity for human CB1 receptors than non-fluorinated analog compound 24: (S)-(-)-enantiomers versus compound 24. Here is the method: In vitro affinity for cannabinoid-CB1 receptors was determined using membrane preparations of Chinese hamster ovary (CHO) cells wherein human cannabinoid CB1 receptors were stably transfected in conjunction with [^3H]CP-55,940 as radioligand. After incubation of a freshly prepared cell membrane preparation with the [^3H]-ligand, with or without addition of compounds of the invention, separation of bound and free ligand was performed by filtration over glassfiber filters. Radioactivity on the filter was measured by liquid scintillation counting. The binding data were either obtained by CEREP (128, rue Danton, 92500 Rueil-Malmaison, France) or at Solvay Pharmaceuticals B.V. (C. J. van Houtenlaan 36, 1381 CP Weesp, The Netherlands).

Series [2] concerns the target T2, human cannabinoid CB2 receptors (Homo sapiens, UniProt P34972).
T2 construct: expressed in transfected cells; host or cells: CHO cells, membrane preparations
The experiment in a line: In vitro affinity for cannabinoid-CB2 receptors, [3H]CP-55,940 radioligand binding, CHO cell membranes. The following applies: means of at least two independent experiments, read-out: receptor binding h-CB2 receptor Ki. Here is the method:
In vitro affinity for cannabinoid-CB2 receptors was determined using membrane preparations of CHO cells wherein human cannabinoid CB2 receptors were stably transfected in conjunction with [^3H]CP-55,940 as radioligand. After incubation of a freshly prepared cell membrane preparation with the [^3H]-ligand, with or without addition of compounds of the invention, separation of bound and free ligand was performed by filtration over glassfiber filters. Radioactivity on the filter was measured by liquid scintillation counting.

Series [3] concerns the target T3, rat CB1 receptor (Rattus norvegicus, UniProt P20272).
T3 construct: Male normotensive rats (225-300 g; Harlan, Horst, The Netherlands) were anaesthetized; from tissue; host or cells: whole animal: male normotensive rats (Harlan)
The series is described as follows: In vivo cannabinoid-CB1 receptor antagonism, CP-55,940-induced hypotension test in rat. To be noted: for ED50: rat, p.o., anaesthetized male rats, CP-55,940 0.1 mg/kg i.v., read-out: blood pressure rat CB1 receptor ED50 (mg/kg, p.o.). Here is the method: In vivo cannabinoid-CB1 receptor antagonism was assessed with the CP-55,940-induced hypotension test in rat. Male normotensive rats (225-300 g; Harlan, Horst, The Netherlands) were anaesthetized with pentobarbital (80 mg/kg ip). Blood pressure was measured, via a cannula inserted into the left carotid artery, by means of a Spectramed DTX-plus pressure transducer (Spectramed B.V., Bilthoven, The Netherlands). After amplification by a Nihon Kohden Carrier Amplifier (Type AP-621G; Nihon Kohden B.V., Amsterdam, The Netherlands), the blood pressure signal was registered on a personal computer (Compaq Deskpro 386s), by means of a Po-Ne-Mah data-acquisition program (Po-Ne-Mah Inc., Storrs, USA). Heart rate was derived from the pulsatile pressure signal. All compounds were administered orally as a microsuspension in 1% methylcellulose 30 minutes before induction of the anesthesia, 60 minutes prior to administration of the CB1 receptor agonist CP-55,940. The injection volume was 10 ml/kg. After haemodynamic stabilization the CB1 receptor agonist CP-55,940 (0.1 mg/kg i.v.) was administered and the hypotensive effect established (Wagner 2001).

T2 sequence (P34972 whole entry): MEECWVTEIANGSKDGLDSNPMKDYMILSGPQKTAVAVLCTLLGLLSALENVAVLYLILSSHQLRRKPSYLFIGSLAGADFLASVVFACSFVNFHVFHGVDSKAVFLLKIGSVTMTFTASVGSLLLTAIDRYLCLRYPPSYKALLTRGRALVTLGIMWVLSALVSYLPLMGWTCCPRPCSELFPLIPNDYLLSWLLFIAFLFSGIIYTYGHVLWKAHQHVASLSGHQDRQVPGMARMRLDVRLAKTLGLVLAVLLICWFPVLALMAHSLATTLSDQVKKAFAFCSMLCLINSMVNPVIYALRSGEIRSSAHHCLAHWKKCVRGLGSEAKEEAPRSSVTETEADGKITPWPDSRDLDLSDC
T3 sequence (P20272 whole entry): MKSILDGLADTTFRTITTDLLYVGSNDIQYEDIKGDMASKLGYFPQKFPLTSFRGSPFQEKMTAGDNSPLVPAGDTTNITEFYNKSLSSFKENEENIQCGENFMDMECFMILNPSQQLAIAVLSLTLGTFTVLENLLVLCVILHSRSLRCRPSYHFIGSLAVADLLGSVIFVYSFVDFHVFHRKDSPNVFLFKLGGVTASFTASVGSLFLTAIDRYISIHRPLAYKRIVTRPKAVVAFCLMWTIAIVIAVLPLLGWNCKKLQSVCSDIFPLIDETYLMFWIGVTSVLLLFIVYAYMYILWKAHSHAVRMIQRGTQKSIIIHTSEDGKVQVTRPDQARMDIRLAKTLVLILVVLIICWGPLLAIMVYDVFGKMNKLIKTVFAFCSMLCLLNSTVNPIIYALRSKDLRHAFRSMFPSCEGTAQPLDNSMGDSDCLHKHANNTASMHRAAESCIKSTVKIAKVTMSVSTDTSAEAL

On to `CN/C(=N/S(=O)(=O)N1CCCCC1)N1C[C@H](c2ccccc2)C(c2ccc(Cl)cc2)=N1` [compound 24, reference compound], for which the Ki was found to be 58 nM in series [1] and 3500 nM in series [2]. In series [3], the ED50 worked out at 8 mg/kg.
As for `CNC(=NS(=O)(=O)N1CCC(F)CC1)N1CC(c2ccccc2)C(c2ccc(Cl)cc2)=N1` (racemic) [compound 3, N-[(4-Fluoropiperidin-1-yl)sulfonyl]-N′-methyl-3-(4-chlorophenyl)-4-phenyl-4,5-dihydro-(1H)-pyrazole-1-carboxamidine], in series [1], the Ki came to 5 nM.
Turning to `CN=C(NS(=O)(=O)N1CCC(F)(F)CC1)N1CC(c2ccccc2)C(c2ccc(Cl)cc2)=N1` (racemic) [compound 1, N-[(4,4-difluoropiperidin-1-yl)sulfonyl]-N′-methyl-3-(4-chlorophenyl)-4-phenyl-4,5-dihydro-(1H)-pyrazole-1-carboxamidine], the Ki in series [1] was determined as 10 nM.
For the compound `CCN=C(NS(=O)(=O)N1CCC(F)(F)CC1)N1CC(c2ccccc2)C(c2ccc(Cl)cc2)=N1` (racemic) [compound 6, N-[(4,4-Difluoropiperidin-1-yl)sulfonyl]-N′-ethyl-3-(4-chlorophenyl)-4-phenyl-4,5-dihydro-(1H)-pyrazole-1-carboxamidine], in series [1], the Ki was determined as 10 nM.
Still for that read-out and setting: the figure for `CN(C)/C(=N/S(=O)(=O)N1CCC(F)(F)CC1)N1CC(c2ccccc2)C(c2ccc(Cl)cc2)=N1` (centres unmarked) [compound 7, N^2-[(4,4-Difluoropiperidin-1-yl)sulfonyl]-N^1-dimethyl-3-(4-chlorophenyl)-4-phenyl-4,5-dihydro-(1H)-pyrazole-1-carboxamidine] is 25 nM.
In turn, `CN=C(NS(=O)(=O)N1CCCC(F)(F)C1)N1CC(c2ccccc2)C(c2ccc(Cl)cc2)=N1` (racemic) [compound 5, N-[(3,3-Difluoropiperidin-1-yl)sulfonyl]-N′-methyl-3-(4-chlorophenyl)-4-phenyl-4,5-dihydro-(1H)-pyrazole-1-carboxamidine] came in with a melting point of 166 to 167 °C. In addition, the Ki in series [1] was 10 nM.
Take `CN/C(=N/S(=O)(=O)N1CCCCC1)N1CC(c2ccccc2)C(c2ccc(Cl)cc2)=N1` (centres unmarked) [compound 21, reference compound]: the Ki in series [1] stood at 152 nM.
With `CN=C(NS(=O)(=O)N1CCC(C(F)(F)F)CC1)N1C[C@H](c2ccccc2)C(c2ccc(Cl)cc2)=N1` [compound 9, (−)-(4S)—N-[(4-(Trifluoromethyl)piperidin-1-yl)sulfonyl]-N′-methyl-3-(4-chlorophenyl)-4-phenyl-4,5-dihydro-(1H)-pyrazole-1-carboxamidine], in series [1], the “factor of higher affinity for human CB1 receptors than non-fluorinated analog compound 24” value is listed as 19 fold and the Ki was found to be 3 nM. In addition, the Ki in series [2] was 316 nM. Besides, the “in vivo activity after oral administration compared with compound 24” value in series [3] (oral administration, CP-55,940-induced hypotension test) was “more active”. Moreover, the ED50 in series [3] was 2 mg/kg.
For `CN=C(NS(=O)(=O)N1CCC(F)(F)CC1)N1C[C@H](c2ccccc2)C(c2ccc(Cl)cc2)=N1` [compound 8, (−)-(4S)—N-[(4,4-difluoropiperidin-1-yl)sulfonyl]-N′-methyl-3-(4-chlorophenyl)-4-phenyl-4,5-dihydro-(1H)-pyrazole-1-carboxamidine], in series [1], the “factor of higher affinity for human CB1 receptors than non-fluorinated analog compound 24” value was 12 fold and the Ki came out at 5 nM.
With `CN=C(NS(=O)(=O)N1CCCC(F)C1)N1CC(c2ccccc2)C(c2ccc(Cl)cc2)=N1` (racemic) [compound 4, N-[(3-Fluoropiperidin-1-yl)sulfonyl]-N′-methyl-3-(4-chlorophenyl)-4-phenyl-4,5-dihydro-(1H)-pyrazole-1-carboxamidine], the melting point is 170 to 171 °C. Also, in series [1], the Ki was determined as 16 nM.
Take `CN/C(=N\S(=O)(=O)N1CCC(C(F)(F)F)CC1)N1CC(c2ccccc2)C(c2ccc(Cl)cc2)=N1` (racemic) [compound 2, N-[(4-(Trifluoromethyl)piperidin-1-yl)sulfonyl]-N′-methyl-3-(4-chlorophenyl)-4-phenyl-4,5-dihydro-(1H)-pyrazole-1-carboxamidine]: the inhibition constant (Ki) in series [1] was 3 nM.
Same read-out and setting: the figure for `CNC(=NS(=O)(=O)N1CCCCC1)N1C[C@@H](c2ccccc2)C(c2ccc(Cl)cc2)=N1` [compound 25, reference compound] is 763 nM.
As to `CN=C(NS(=O)(=O)N1CCC(C(F)(F)F)CC1)N1C[C@@H](c2ccccc2)C(c2ccc(Cl)cc2)=N1` [compound 10, (+)-(4R)—N-[(4-(Trifluoromethyl)piperidin-1-yl)sulfonyl]-N′-methyl-3-(4-chlorophenyl)-4-phenyl-4,5-dihydro-(1H)-pyrazole-1-carboxamidine], the Ki was 125 nM in series [1] and greater than 1000 nM in series [2]. Further, the “affinity for human CB1 receptors, fold less than that of compound 9” value in series [1] (distomer versus eutomer compound 9) is listed as “about 40 fold”. Besides, the “in vivo activity in the hypotension test” value in series [3] (given at 30 mg/kg) is recorded as “devoid of in vivo activity”. Also, the ED50 in series [3] was greater than 30 mg/kg.
